US9382256B2, “Formulation of Syk inhibitors” (Gilead Connecticut, Inc., priority 2013, dated 2016)
Structures can show the parent of a compound that is named as a salt.

Experiments:
[1] = Intrinsic dissolution rate, rotating disk apparatus; type: physicochemical; conditions: 100 rpm, 37±0.5° C., 500 mL
Protocol: Intrinsic dissolution measurements were conducted using a rotating disk apparatus. Disks of Compound 1, Compound 2 and Compound 3 were separately prepared by directly compressing 100 mg of a powder of the respectively compounds in a die at a pressure of 2500 psi for 2 minutes using a hydraulic press (Carver Press, Fred Carver, NJ, USA). The exposed surface area for the resulting disks was 0.5 cm^2. A USP dissolution apparatus maintained at 37±0.5° C. was used for the dissolution study. Each dissolution vessel contained 500 mL of aqueous dissolution medium of 0.05 N HCl or pH 6.8 20 mM phosphate buffer with 1% cetyltrimetrylammonium bromide (CTAB). The disk holder (die) was half-immersed into the dissolution medium and rotated at 100 rpm. Samples were withdrawn at specified time intervals and the amount of compound dissolved was determined by HPLC.
The amount of compound dissolved at each time point was plotted versus time and the observed dissolution rate (mg/min) was obtained from the slope of the plot. The observed dissolution rate was divided by the surface area of the compound disk (0.5 cm^2) to obtain the intrinsic dissolution rate.

[2] = Physical stability of dry granulation formulation during processing and storage (XRPD); type: physicochemical; conditions: intragranular blend, milled granules, final blend (FIG. 4)

Intrinsic dissolution rate in pH 1.3 0.05N HCl with 0.9% NaCl [1] | form change by XRPD during processing [2] | SMILES
0.00046 mg/min/cm^2 | – | c1cn2cc(-c3ccc4cn[nH]c4c3)nc(Nc3ccc(N4CCOCC4)cc3)c2n1 [Compound 1]
– | no form change was observed | c1cn2cc(-c3ccc4cn[nH]c4c3)nc(Nc3ccc(N4CCOCC4)cc3)c2n1 [bis-mesylate salt of Formula IA]
